The assay relates to NCI-H1975 (EGFR-L858R-T790M) cells. Put plainly: Inhibitory activity on proliferation of NCI-H1975 (EGFR-L858R-T790M) cells (CTG, 72 h). The format is cell-based. The conditions noted are these: Homo sapiens. A digest of the protocol:
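IC50 values come from S-shaped dose-survival fits of CTG signal expressed as % of vehicle. Compound exposure lasted 72 h at 37 °C with 0.1% DMSO; seeding was 3000 A431 cells/well in DMEM+10% FBS and 1000 NCI-H1975 cells/well in RPMI1640+10% FBS.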

Setting [1] is: read-out: IC50 (value in brackets).

Like-named read-outs stand apart in the source and are kept apart here.

For the molecule `COc1cc(N2CCC3(CCN(CC4CCN(c5cc6c(cc5F)C(=O)N(C5CCC(=O)NC5=O)C6=O)CC4)CC3)CC2)c(-c2cnn(C)c2)cc1Nc1ncc(Br)c(Nc2ccc3nccnc3c2P(C)(C)=O)n1` (stereo not drawn) [Compound 21, 5-(4-((9-(4-((5-bromo-4-((5-(dimethylphosphoryl)quinoxalin-6-yl)amino)pyrimidin-2-yl)amino)-5-methoxy-2-(1-methyl-1H-pyrazol-4-yl)phenyl)-3,9-diazaspiro[5.5]undecan-3-yl)methyl)piperidin-1-yl)-2-(2,6-dioxopiperidin-3-yl)-6-fluoroisoindoline-1,3-dione], the IC50 (in general, the concentration needed to halve the response being measured) runs as follows: (read-out: IC50 (class symbol)) below 100 nM; under setting [1], 39 nM.

For `COc1cc(N2CCN(C3CCN(CC4CCN(c5ccc6c(c5)C(=O)N(C5CCC(=O)NC5=O)C6=O)CC4)CC3)CC2)c(C2CC2)cc1Nc1ncc(Cl)c(Nc2ccc3nccnc3c2P(C)(C)=O)n1` (stereo not drawn) [Compound 26, 5-(4-((4-(4-(4-((5-chloro-4-((5-(dimethylphosphoryl)quinoxalin-6-yl)amino)pyrimidin-2-yl)amino)-2-cyclopropyl-5-methoxyphenyl)piperazin-1-yl)piperidin-1-yl)methyl)piperidin-1-yl)-2-(2,6-dioxopiperidin-3-yl)isoindoline-1,3-dione], the 50% inhibitory concentration (IC50) (read-out: IC50 (class symbol)) lay within 100 to 500 nM.

As for `COc1cc(N2CCN(CC3CCN(c4ccc(C(=O)NC5CCC(=O)NC5=O)nc4)CC3)CC2)c(-c2cnn(C)c2)cc1Nc1ncc(Cl)c(Nc2ccc(-c3ccccc3)cc2P(C)(C)=O)n1` (stereo not drawn) [Compound 124, 5-(4-((4-(4-((5-chloro-4-((3-(dimethylphosphoryl)-[1,1′-biphenyl]-4-yl)amino)pyrimidin-2-yl)amino)-5-methoxy-2-(1-methyl-1H-pyrazol-4-yl)phenyl)piperazin-1-yl)methyl)piperidin-1-yl)-N-(2,6-dioxopiperidin-3-yl)picolinamide], the IC50 is, setting by setting: (read-out: IC50 (class symbol)) below 100 nM; under setting [1], 71 nM.

For the molecule `COc1cc(N2CCC(CN3CCN(c4ccc(C5CCC(=O)NC5=O)cc4)CC3)CC2)c(-c2cnn(C)c2)cc1Nc1ncc(Cl)c(Nc2ccc(C3CC3)cc2P(C)(C)=O)n1` (stereo not drawn) [Compound 152, 3-(4-(4-((1-(4-((5-chloro-4-((4-cyclopropyl-2-(dimethylphosphoryl)phenyl)amino)pyrimidin-2-yl)amino)-5-methoxy-2-(1-methyl-1H-pyrazol-4-yl)phenyl)piperidin-4-yl)methyl)piperazin-1-yl)phenyl)piperidine-2,6-dione], the IC50 (read-out: IC50 (class symbol)) was below 100 nM and the IC50 under setting [1] is 68 nM.

As for `COc1cc(N2CCN(C3CCN(CC4CCN(c5ccc6c(c5)C(=O)N(C5CCC(=O)NC5=O)C6=O)CC4)CC3)CC2)c(-c2cnn(C)c2)cc1Nc1ncc(Cl)c(Nc2ccc3nccnc3c2P(C)(C)=O)n1` (stereo not drawn) [Trifluoroacetate of compound 12, 5-(4-((4-(4-(4-((5-chloro-4-((5-(dimethylphosphoryl)quinoxalin-6-yl)amino)pyrimidin-2-yl)amino)-5-methoxy-2-(1-methyl-1H-pyrazol-4-yl)phenyl)piperazin-1-yl)piperidin-1-yl)methyl)piperidin-1-yl)-2-(2,6-dioxopiperidin-3-yl)isoindoline-1,3-dione], the half-maximal inhibitory concentration (IC50) reads like this: (read-out: IC50 (class symbol)) below 100 nM; under setting [1], 59 nM.

In the case of `COc1cc(N2CCC(CN3CCC4(CCCN(c5ccc6c(c5)C(=O)N(C5CCC(=O)NC5=O)C6=O)C4)CC3)CC2)c(-c2cnn(C)c2)cc1Nc1ncc(Cl)c(Nc2ccc3nccnc3c2P(C)(C)=O)n1` (stereo not drawn) [Compound 10, 5-(9-((1-(4-((5-chloro-4-((5-(dimethylphosphoryl)quinoxalin-6-yl)amino)pyrimidin-2-yl)amino)-5-methoxy-2-(1-methyl-1H-pyrazol-4-yl)phenyl)piperidin-4-yl)methyl)-2,9-diazaspiro[5.5]undecan-2-yl)-2-(2,6-dioxopiperidin-3-yl)isoindoline-1,3-dione], the IC50 (read-out: IC50 (class symbol)) was below 100 nM and the IC50 under setting [1] came to 13 nM.

For `COc1cc(N2CCC3(CC2)CN(CC2CCN(c4cc5c(cc4F)C(=O)N(C4CCC(=O)NC4=O)C5=O)CC2)C3)c(-c2cnn(C)c2)cc1Nc1ncc(Cl)c(Nc2ccc(-c3ccccc3)cc2P(C)(C)=O)n1` (stereo not drawn) [Compound 94, 5-(4-((7-(4-((5-chloro-4-((3-(dimethylphosphoryl)-[1,1′-biphenyl]-4-yl)amino)pyrimidin-2-yl)amino)-5-methoxy-2-(1-methyl-1H-pyrazol-4-yl)phenyl)-2,7-diazaspiro[3.5]nonan-2-yl)methyl)piperidin-1-yl)-2-(2,6-dioxopiperidin-3-yl)-6-fluoroisoindoline-1,3-dione], the IC50 by setting is: (read-out: IC50 (class symbol)) below 100 nM; under setting [1], 77 nM.

As for `COc1cc(N2CCC(N3CCC4(CCCN(c5ccc6c(c5)C(=O)N(C5CCC(=O)NC5=O)C6=O)C4)CC3)CC2)c(-c2cnn(C)c2)cc1Nc1ncc(Cl)c(Nc2ccc3nccnc3c2P(C)(C)=O)n1` (stereo not drawn) [Compound 11, 5-(9-(1-(4-((5-chloro-4-((5-(dimethylphosphoryl)quinoxalin-6-yl)amino)pyrimidin-2-yl)amino)-5-methoxy-2-(1-methyl-1H-pyrazol-4-yl)phenyl)piperidin-4-yl)-2,9-diazaspiro[5.5]undecan-2-yl)-2-(2,6-dioxopiperidin-3-yl)isoindoline-1,3-dione], the IC50 runs as follows: (read-out: IC50 (class symbol)) below 100 nM; under setting [1], 7 nM.

Take `COc1cc(N2CCC(CN3CCC4(CC3)CCN(c3cc5c(cc3F)C(=O)N(C3CCC(=O)NC3=O)C5=O)CC4)CC2)c(-c2cnn(C)c2)cc1Nc1ncc(Cl)c(Nc2ccc(-c3ccccc3)cc2P(C)(C)=O)n1` (stereo not drawn) [Compound 52, 5-(9-((1-(4-((5-chloro-4-((3-(dimethylphosphoryl)-[1,1′-biphenyl]-4-yl)amino)pyrimidin-2-yl)amino)-5-methoxy-2-(1-methyl-1H-pyrazol-4-yl)phenyl)piperidin-4-yl)methyl)-3,9-diazaspiro[5.5]undecan-3-yl)-2-(2,6-dioxopiperidin-3-yl)-6-fluoroisoindoline-1,3-dione]: the IC50 (read-out: IC50 (class symbol)) is below 100 nM and the IC50 under setting [1] was found to be 84 nM.

In the case of `COc1cc(N2CCC(N3CCN(CC4CCN(c5cc6c(cc5F)C(=O)N(C5CCC(=O)NC5=O)C6=O)CC4)CC3)CC2)c(-c2cnn(C)c2)cc1Nc1ncc(Cl)c(Nc2ccc3nccnc3c2P(C)(C)=O)n1` (stereo not drawn) [Compound 5, 5-(4-((4-(1-(4-((5-chloro-4-((5-(dimethylphosphoryl)quinoxalin-6-yl)amino)pyrimidin-2-yl)amino)-5-methoxy-2-(1-methyl-1H-pyrazol-4-yl)phenyl)piperidin-4-yl)piperazin-1-yl)methyl)piperidin-1-yl)-2-(2,6-dioxopiperidin-3-yl)-6-fluoroisoindoline-1,3-dione], the IC50 is below 100 nM (read-out: IC50 (class symbol)) and 52 nM under setting [1].

Turning to `COc1cc(N2CCC(N3CCC(CN4CCN(c5ccc6c(c5)C(=O)N(C5CCC(=O)NC5=O)C6=O)CC4)CC3)CC2)c(-c2cnn(C)c2)cc1Nc1ncc(Cl)c(Nc2ccc3nccnc3c2P(C)(C)=O)n1` (stereo not drawn) [Compound 8, 5-(4-((1′-(4-((5-chloro-4-((5-(dimethylphosphoryl)quinoxalin-6-yl)amino)pyrimidin-2-yl)amino)-5-methoxy-2-(1-methyl-1H-pyrazol-4-yl)phenyl)-[1,4′-bipiperidin]-4-yl)methyl)piperazin-1-yl)-2-(2,6-dioxopiperidin-3-yl)isoindoline-1,3-dione], the IC50 was below 100 nM (read-out: IC50 (class symbol)) and 34 nM under setting [1].

On to `COc1cc(N2CCC(CN3CCCC4(CCN(c5ccc6c(c5)C(=O)N(C5CCC(=O)NC5=O)C6=O)CC4)C3)CC2)c(-c2cnn(C)c2)cc1Nc1ncc(Cl)c(Nc2ccc(-c3ccccc3)cc2P(C)(C)=O)n1` (stereo not drawn) [Compound 49, 5-(2-((1-(4-((5-chloro-4-((3-(dimethylphosphoryl)-[1,1′-biphenyl]-4-yl)amino)pyrimidin-2-yl)amino)-5-methoxy-2-(1-methyl-1H-pyrazol-4-yl)phenyl)piperidin-4-yl)methyl)-2,9-diazaspiro[5.5]undecan-9-yl)-2-(2,6-dioxopiperidin-3-yl)isoindoline-1,3-dione], for which the IC50 runs as follows: (read-out: IC50 (class symbol)) 100 to 500 nM; under setting [1], 266 nM.

`COc1cc(N2CCC(CN3CCCC4(CCN(c5ccc6c(c5)C(=O)N(C5CCC(=O)NC5=O)C6=O)CC4)C3)CC2)c(-c2cnn(C)c2)cc1Nc1ncc(Br)c(Nc2ccc(-c3ccccc3)cc2P(C)(C)=O)n1` (stereo not drawn) [Compound 44, 5-(2-((1-(4-((5-bromo-4-((3-(dimethylphosphoryl)-[1,1′-biphenyl]-4-yl)amino)pyrimidin-2-yl)amino)-5-methoxy-2-(1-methyl-1H-pyrazol-4-yl)phenyl)piperidin-4-yl)methyl)-2,9-diazaspiro[5.5]undecan-9-yl)-2-(2,6-dioxopiperidin-3-yl)isoindoline-1,3-dione]: the IC50 was 100 to 500 nM (read-out: IC50 (class symbol)) and 301 nM under setting [1].

For the molecule `COc1cc(N2CCC(CN3CCN(c4ccc(NC5CCC(=O)NC5=O)cc4F)CC3)CC2)c(-c2cnn(C)c2)cc1Nc1ncc(Cl)c(Nc2ccccc2P(C)(C)=O)n1` (stereo not drawn) [Compound 157, 3-((4-(4-((1-(4-((5-chloro-4-((2-(dimethylphosphoryl)phenyl)amino)pyrimidin-2-yl)amino)-5-methoxy-2-(1-methyl-1H-pyrazol-4-yl)phenyl)piperidin-4-yl)methyl)piperazin-1-yl)-3-fluorophenyl)amino)piperidine-2,6-dione], the IC50 by setting is: (read-out: IC50 (class symbol)) below 100 nM; under setting [1], 29 nM.

For the origin of these results see patent US20240269298A1, “PHOSPHONYL DERIVATIVE, AND COMPOSITION AND PHARMACEUTICAL APPLICATION THEREOF” (XIZANG HAISCO PHARMACEUTICAL CO., LTD., priority 2021, published 2024).
